Measurements published in patent US10538536B2, “Process for the preparation of 2-pyrazolo[1,5-a]pyrazin-2-ylpyrido[1,2-a]pyrimidin-4-one compounds” (Hoffmann-La Roche Inc., priority 2016, dated 2020).

How the values were obtained:
[1] = genotoxicity of side-products of the process with compound (IIIa); details: side-products formed when compound (IIIa) is used
Excerpt: According to the process herein described when compound (IIIa) is being used compounds of formulae (X) and (XI) may be produced as side-products, which are genotoxic: […]

[2] = relative stability of polymorphs Form A and Form F; type: physicochemical

Structure (SMILES) | genotoxicity [1] | drug product robustness ([2]; Form F) | relative thermodynamic stability of polymorphs (enantiotropically related) ([2]; at 80° C. or below, Form F versus Form A)
CCc1nc(C)cn2nc(-c3nc4c(C)cc(C5CCN(C)CC5)cn4c(=O)c3Cl)cc12 [(X)] | genotoxic | – | –
CCc1nc(C)cn2nc(-c3nc4c(C)cc(C5CCN(C)CC5)cn4c(=O)c3C(=O)CCl)cc12 [(XI)] | genotoxic | – | –
CCc1nc(C)cn2nc(-c3cc(=O)n4cc(C5CCN(C)CC5)cc(C)c4n3)cc12 [Form F, 2-(4-Ethyl-6-methyl-pyrazolo[1,5-a]pyrazin-2-yl)-9-methyl-7-(1-methyl-piperidin-4-yl)-pyrido[1,2-a]pyrimidin-4-one] | – | improve drug product robustness | more stable
